In test [1] the test system is KRas-mediated phosphorylation of ERK in H727 cells. As to the kind of experiment: Inhibition of KRas-mediated phosphorylation of ERK (Cisbio HTRF pERK), H727 cells. The note with it: Homo sapiens, NCI-H727, H727 cells; HTRF pERK. The format is cell-based. The method in brief: (§1)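 Cells were seeded at 6,000 per well and treated for 3 hrs with compound in a 10-dose, 3-fold series from 10 uM (0.8% final DMSO), with 0.2 uM Trametinib as Min control. Lysates made at 4° C over 40 mins were incubated 2 hrs at room temperature with d2- and Cryptate-labelled antibodies, then read by HTRF.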
In general terms: In TR-FRET formats the signal depends on donor and acceptor labels being close together.

Another test has as its target T1, KRas^G12R (Homo sapiens, UniProt P01116, G12R).
T1 construct: Biotinylated KRas (corresponding to amino acids 1-169, produced at Accelegan Inc.); biotin (biotinylated); purchased Accelegan Inc
As to the kind of experiment: KRas binding assay (TR-FRET tracer displacement), KRas G12R.

For test [2], the system named is KRas-mediated phosphorylation of ERK in A549 cells. As to the kind of experiment: Inhibition of KRas-mediated phosphorylation of ERK (Cisbio HTRF pERK), A549 cells. The format is cell-based. The note with it: Homo sapiens, HTRF pERK. The method in brief:
as §1

The test system of test [3] is KRas-mediated phosphorylation of ERK in HCT116 cells. As to the kind of experiment: Inhibition of KRas-mediated phosphorylation of ERK (Cisbio HTRF pERK), HCT116 cells. The test is classed as cell-based. The note with it: Homo sapiens, HCT-116, HTRF pERK. An outline of the steps: as §1
The target of another test is T2, KRas^G12V (Homo sapiens, UniProt P01116, G12V).
T2 construct: Biotinylated KRas (corresponding to amino acids 1-169, produced at Accelegan Inc.); biotin (biotinylated); purchased Accelegan Inc
As to the kind of experiment: KRas binding assay (TR-FRET tracer displacement), KRas G12V.

For test [4], the system named is KRas-mediated phosphorylation of ERK in MKN1 cells. As to the kind of experiment: Inhibition of KRas-mediated phosphorylation of ERK (Cisbio HTRF pERK), MKN1 cells. The test is classed as cell-based. The note with it: Homo sapiens, MKN-1. An outline of the steps: (§2)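 Day 1 seeding: 6,000 cells per well, RPMI/10% FBS, left overnight at 37° C. with 5% CO2. Plates then stood covered for 4 h at room temperature prior to HTRF detection of pERK.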

The subject of test [5] is KRas-mediated phosphorylation of ERK in PSN1 cells. As to the kind of experiment: Inhibition of KRas-mediated phosphorylation of ERK (Cisbio HTRF pERK), PSN1 cells. The test is classed as cell-based. The note with it: Homo sapiens. An outline of the steps: as §2
Test [6] has as its system KRas-mediated phosphorylation of ERK in AsPC-1 cells. As to the kind of experiment: Inhibition of KRas-mediated phosphorylation of ERK (Cisbio HTRF pERK), AsPC-1 cells. The test is classed as cell-based. The settings on record: Homo sapiens, ASPC1, AsPC-1 cells; HTRF pERK. An outline of the steps: as §1
For the next test, the target named is T3, KRas^G12D (Homo sapiens, UniProt P01116, G12D).
T3 construct: Biotinylated KRas (corresponding to amino acids 1-169, produced at Accelegan Inc.); biotin (biotinylated); purchased Accelegan Inc
As to the kind of experiment: KRas binding assay (TR-FRET tracer displacement), KRas G12D.

In test [7] the test system is KRas-mediated phosphorylation of ERK in H460 cells. As to the kind of experiment: Inhibition of KRas-mediated phosphorylation of ERK (Cisbio HTRF pERK), H460 cells. The format is cell-based. The settings on record: Homo sapiens, NCI-H460, HTRF pERK. The method in brief:
as §1

T2 sequence (P01116 1-169 isoform P01116-2 G12V): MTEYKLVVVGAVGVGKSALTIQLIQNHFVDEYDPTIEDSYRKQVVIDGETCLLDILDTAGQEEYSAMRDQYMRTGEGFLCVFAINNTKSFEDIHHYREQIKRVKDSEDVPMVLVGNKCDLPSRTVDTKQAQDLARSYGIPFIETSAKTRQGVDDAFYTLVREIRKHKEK
T3 sequence (P01116 1-169 isoform P01116-2 G12D): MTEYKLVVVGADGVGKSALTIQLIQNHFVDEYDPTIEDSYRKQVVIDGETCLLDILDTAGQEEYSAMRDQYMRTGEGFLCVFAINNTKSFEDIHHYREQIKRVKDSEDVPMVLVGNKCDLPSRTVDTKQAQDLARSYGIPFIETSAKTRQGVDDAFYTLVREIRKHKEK
T1 sequence (P01116 1-169 isoform P01116-2 G12R): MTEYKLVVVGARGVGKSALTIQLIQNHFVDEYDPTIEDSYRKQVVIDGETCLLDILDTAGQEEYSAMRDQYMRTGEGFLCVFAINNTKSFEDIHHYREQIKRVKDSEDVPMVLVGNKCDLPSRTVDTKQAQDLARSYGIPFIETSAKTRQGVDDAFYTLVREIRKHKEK

The IC50 is the concentration that gives 50% inhibition. Read a low IC50 as greater potency. Regarding `CCc1c(F)ccc2cc(O)cc(-c3ncc4c(N5CCC6CCC(C6)C5)nc(OC[C@@]56CCCN5C[C@H](F)C6)nc4c3F)c12` (stereo partly drawn) [Example 550, 4-(4-(3-azabicyclo[4.2.1]nonan-3-yl)-8-fluoro-2-(((2R,7aS)-2-fluorotetrahydro-1H-pyrrolizin-7a(5H)-yl)methoxy)pyrido[4,3-d]pyrimidin-7-yl)-5-ethyl-6-fluoronaphthalen-2-ol], the half-maximal inhibitory concentration (IC50) in [1] turned out to be 293 nM; on KRas^G12R, 8 nM; in [2], 423 nM; in test [3], 1370 nM; at KRas^G12V it was 14 nM; in test [4], 645 nM. The IC50 is more than 10000 nM in test [5], 590 nM in test [6] and 47 nM at KRas^G12D.
As to `CCc1c(F)ccc2cc(O)cc(-c3ncc4c(N5CCCO[C@@H](CCO)C5)nc(OC[C@@]56CCCN5C[C@H](F)C6)nc4c3F)c12` [Example 578, 5-ethyl-6-fluoro-4-(8-fluoro-2-(((2R,7aS)-2-fluorohexahydro-1H-pyrrolizin-7a-yl)methoxy)-4-((S)-2-(2-hydroxyethyl)-1,4-oxazepan-4-yl)pyrido[4,3-d]pyrimidin-7-yl)naphthalen-2-ol], the IC50 in test [7] turned out to be 125 nM; in test [1], 258 nM; at KRas^G12R, 2 nM; in test [2] it was 467 nM; on KRas^G12V it was 8 nM; in test [4], 1 nM. Besides, the values for the IC50 (in [5]; in test [6]; on KRas^G12D) were more than 10000 nM, 294 nM and 5 nM, respectively.
For `CCc1c(F)ccc2cc(O)cc(-c3ncc4c(N5CCCOC(CCOC)C5)nc(OC[C@@]56CCCN5C[C@H](F)C6)nc4c3F)c12` (stereo partly drawn) [Example 601, 5-ethyl-6-fluoro-4-(8-fluoro-2-(((2R,7aS)-2-fluorohexahydro-1H-pyrrolizin-7a-yl)methoxy)-4-(2-(2-methoxyethyl)-1,4-oxazepan-4-yl)pyrido[4,3-d]pyrimidin-7-yl)naphthalen-2-ol], the IC50 stood at 133 nM in [7]; 300 nM in [1]; 7 nM at KRas^G12R; 344 nM in [2]; 12 nM at KRas^G12V; 26 nM in [4]. Besides, the 50% inhibitory concentration (IC50) was more than 10000 nM in test [5], 376 nM in test [6] and 14 nM on KRas^G12D.
On to `CCc1c(F)ccc2cc(O)cc(-c3ncc4c(N[C@@H](C)c5cc(C(=O)N(C)C)nn5C)nc(OC[C@@]56CCCN5C[C@H](F)C6)nc4c3F)c12` [Example 650, 5-((S)-1-((7-(8-ethyl-7-fluoro-3-hydroxynaphthalen-1-yl)-8-fluoro-2-(((2R,7aS)-2-fluorohexahydro-1H-pyrrolizin-7a-yl)methoxy)pyrido[4,3-d]pyrimidin-4-yl)amino)ethyl)-N,N,1-trimethyl-1H-pyrazole-3-carboxamide], for which the IC50 in test [1] was 162 nM; on KRas^G12R, 3 nM; in test [2], 847 nM; in test [3] it was 2410 nM; at KRas^G12V it was less than 2 nM; in [4], 256 nM. In addition, the IC50 in [5] was more than 10000 nM; in test [6], 1320 nM; on KRas^G12D, 14 nM.
As for `CCc1c(F)ccc2cc(O)cc(-c3ncc4c(N5CCCC(N6CCCCS6(=O)=O)C5)nc(OC[C@@]56CCCN5C[C@H](F)C6)nc4c3F)c12` (stereo partly drawn) [Example 664, 2-(1-(7-(8-ethyl-7-fluoro-3-hydroxynaphthalen-1-yl)-8-fluoro-2-(((2R,7aS)-2-fluorohexahydro-1H-pyrrolizin-7a-yl)methoxy)pyrido[4,3-d]pyrimidin-4-yl)piperidin-3-yl)-1,2-thiazinane 1,1-dioxide], the IC50 in [1] is 351 nM; at KRas^G12R it was 2 nM; in test [2] it was 152 nM; on KRas^G12V it was 6 nM; in test [4], 5 nM; in test [5], more than 10000 nM. Further, the IC50 was 567 nM in test [6] and 7 nM on KRas^G12D.
Consider `CCc1c(F)ccc2cc(O)cc(-c3ncc4c(N5CCC[C@@](C)(O)C5)nc(OC[C@@]56CCCN5C[C@H](F)CC6)nc4c3F)c12` [Example 815, (R)-1-(7-(8-ethyl-7-fluoro-3-hydroxynaphthalen-1-yl)-8-fluoro-2-(((6R,8aS)-6-fluorohexahydroindolizin-8a (1H)-yl)methoxy)pyrido[4,3-d]pyrimidin-4-yl)-3-methylpiperidin-3-ol], for which the half-inhibitory concentration (IC50) in [1] is 28 nM; on KRas^G12R, 4 nM; on KRas^G12V it was less than 2 nM; in test [4], 22 nM; in test [5], 2290 nM; in [6] it was 32 nM. For the same molecule, at KRas^G12D, the IC50 came to 2 nM.
As to `Oc1cc(-c2ncc3c(N4C[C@@H]5C[C@H](C4)[C@H](O)C5)nc(OC[C@@]45CCCN4C[C@H](F)C5)nc3c2F)c2cc(C(F)(F)F)ccc2c1` [Example 817, (1R,5R,6R)-3-(8-fluoro-2-(((2R,7aS)-2-fluorotetrahydro-1H-pyrrolizin-7a(5H)-yl)methoxy)-7-(3-hydroxy-7-(trifluoromethyl)naphthalen-1-yl)pyrido[4,3-d]pyrimidin-4-yl)-3-azabicyclo[3.2.1]octan-6-ol], the IC50 was 43 nM in test [1]; 2 nM on KRas^G12R; less than 2 nM at KRas^G12V; 50 nM in test [4]; 5110 nM in [5]; 188 nM in [6]. At KRas^G12D, the IC50 amounted to 5 nM.
For `CCc1c(F)ccc2cc(O)cc(-c3ncc4c(N5CCCCC(n6ccnn6)C5)nc(OC[C@@]56CCCN5C[C@H](F)C6)nc4c3F)c12` (stereo partly drawn) [Example 830, 4-(4-(3-(1H-1,2,3-triazol-1-yl)azepan-1-yl)-8-fluoro-2-(((2R,7aS)-2-fluorotetrahydro-1H-pyrrolizin-7a(5H)-yl)methoxy)pyrido[4,3-d]pyrimidin-7-yl)-5-ethyl-6-fluoronaphthalen-2-ol], the IC50 is 267 nM in test [1]; 12 nM at KRas^G12R; 5 nM on KRas^G12V; 188 nM in test [4]; 7860 nM in test [5]; 272 nM in test [6]. The same molecule came in with an IC50 at KRas^G12D of 5 nM.
As to `CCc1c(F)ccc2cc(O)cc(-c3ncc4c(N5C[C@H]6CC[C@@H](C5)N6C5CC(F)(F)C5)nc(OC[C@@]56CCCN5C[C@H](F)C6)nc4c3F)c12` [Example 831, 4-(4-((1R,5S)-8-(3,3-difluorocyclobutyl)-3,8-diazabicyclo[3.2.1]octan-3-yl)-8-fluoro-2-(((2R,7aS)-2-fluorotetrahydro-1H-pyrrolizin-7a(5H)-yl)methoxy)pyrido[4,3-d]pyrimidin-7-yl)-5-ethyl-6-fluoronaphthalen-2-ol], the IC50 is 1080 nM in test [1]; 38 nM on KRas^G12R; 36 nM at KRas^G12V; 13 nM in test [4]; more than 10000 nM in test [5]; 331 nM in test [6]. Besides, the IC50 on KRas^G12D is 42 nM.
`CCc1c(F)ccc2cc(O)cc(-c3ncc4c(N5CCCC6(CCS6)C5)nc(OC[C@@]56CCCN5C[C@H](F)C6)nc4c3F)c12` (stereo partly drawn) [Example 838, 5-ethyl-6-fluoro-4-(8-fluoro-2-(((2R,7aS)-2-fluorotetrahydro-1H-pyrrolizin-7a(5H)-yl)methoxy)-4-(1-thia-6-azaspiro[3.5]nonan-6-yl)pyrido[4,3-d]pyrimidin-7-yl)naphthalen-2-ol]: the IC50 in test [1] was 1030 nM; at KRas^G12R, 15 nM; on KRas^G12V it was 10 nM; in test [4], 222 nM; in test [5], more than 10000 nM; in [6] it was 508 nM. In addition, the IC50 on KRas^G12D worked out at 16 nM.
With `CCc1c(F)ccc2cc(O)cc(-c3ncc4c(N5CC6CCC(CC6)C5)nc(OC[C@@]56CCCN5C[C@H](F)C6)nc4c3F)c12` [Example 844, 4-(4-(3-azabicyclo[3.2.2]nonan-3-yl)-8-fluoro-2-(((2R,7aS)-2-fluorotetrahydro-1H-pyrrolizin-7a(5H)-yl)methoxy)pyrido[4,3-d]pyrimidin-7-yl)-5-ethyl-6-fluoronaphthalen-2-ol], the 50% inhibitory concentration (IC50) is 2900 nM in test [1]; 46 nM on KRas^G12R; 35 nM at KRas^G12V; 198 nM in test [4]; more than 10000 nM in [5]; 3330 nM in test [6]. Moreover, the IC50 at KRas^G12D amounted to 103 nM.

Values taken from patent US20260015350A1, “AZAQUINAZOLINE PAN-KRAS INHIBITORS” (Mirati Therapeutics, Inc., priority 2022, published 2026).
